Read-outs that look alike come from different tables or passages of the source.
Legend:
Type 1 astrocytes = experiment: [3H]GABA uptake in Type 1 astrocyte cultures; type: cell-based, rat; conditions: read-out: IC50 for inhibition of [3H]GABA uptake, Type 1 astrocytes
Protocol: (§1) Preparation of primary rat astrocyte cell cultures: Primary glial cultures were established from newborn Sprague-Dawley rat brains. Brains minus cerebella were removed aseptically and carefully dissected free of meninges. […] The cells were dissociated by trituration through a serological pipette. Separate procedures were then used for the preparation of Type-1 and O-2A/Type-2 astrocyte cultures, as will now be described.
(§2) For the preparation of Type-1 astrocyte cultures, cells were plated onto uncoated 75 cm^2 flasks at low density (1 brain per 10 flasks, or approximately 8×10^4 cells/cm^2). The medium was changed the following day and twice a week thereafter. […] Cultures highly enriched in O-2A/Type-2 cells were prepared from mixed astrocyte cultures which consisted of a monolayer of Type 1 cells upon which rested large numbers of O-2A/Type 2 cells. […] The same brain cell suspensions as described above were plated at high density (1 brain per 75 cm^2 flask, or approximately 8×10^5 cells/cm^2) into flasks coated with poly-D-lysine (10 μg/ml). After 24 hours the medium was replaced and the cultures were subsequently fed twice a week. […] Complete medium was added to the flasks and the cell suspension was removed gently, care being taken to not disrupt the underlying Type 1 astrocyte monolayer. The cells were pelleted at low speed, resuspended in complete medium, and added to 24-well plates coated with poly-D-lysine (10 μg/ml). […] No attempt was made to distinguish or separate O-2A precursors from the more differentiated Type 2 astrocytes.

hBGT-1 = target: T1, hBGT-1 (Homo sapiens, UniProt P48065); experiment: [3H]GABA uptake, full competition curves at cloned hBGT-1 (transient transfection, COS cells); type: cell-based; design: expressed in transfected cells; host or cells: COS cells, transient (DEAE-dextran)
T1 sequence (P48065 1-614): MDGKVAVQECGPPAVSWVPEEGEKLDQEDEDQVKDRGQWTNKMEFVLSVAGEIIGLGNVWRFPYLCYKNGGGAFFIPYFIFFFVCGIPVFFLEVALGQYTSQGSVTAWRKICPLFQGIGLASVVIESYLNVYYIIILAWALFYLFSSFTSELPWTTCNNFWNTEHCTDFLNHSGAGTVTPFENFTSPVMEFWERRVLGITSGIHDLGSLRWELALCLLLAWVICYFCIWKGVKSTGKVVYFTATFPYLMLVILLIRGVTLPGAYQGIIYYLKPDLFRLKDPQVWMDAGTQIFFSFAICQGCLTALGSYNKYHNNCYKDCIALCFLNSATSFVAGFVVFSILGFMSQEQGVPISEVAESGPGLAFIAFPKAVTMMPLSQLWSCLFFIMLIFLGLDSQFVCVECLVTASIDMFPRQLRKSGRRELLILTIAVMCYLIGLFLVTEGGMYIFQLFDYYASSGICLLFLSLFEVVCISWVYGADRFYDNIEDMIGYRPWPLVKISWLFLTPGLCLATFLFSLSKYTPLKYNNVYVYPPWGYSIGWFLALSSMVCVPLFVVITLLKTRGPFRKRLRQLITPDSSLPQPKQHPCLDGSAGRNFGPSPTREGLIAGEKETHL

rat GAT-1 = rat GAT-1 (Rattus norvegicus, UniProt P23978); experiment: cell-based
Protocol: Cells grown in 24-well plates were washed 3× with HEPES-buffered saline (HBS, in mM: NaCl, 150; HEPES, 20; CaCl2, 1; glucose, 10; KCl, 5; MgCl2, 1; pH 7.4) and allowed to equilibrate on a 37° C. slide warmer. After 10 minutes the medium was removed and unlabeled drugs in HBS were added (450 μl/well). […] Plates were incubated at 37° C. for 10 minutes, then washed rapidly 3× with ice-cold HBS, using a 24-position plate washer (Brandel, Gaithersburg, Mass.; model PW-12). Cells were solubilized with 0.05% sodium deoxycholate/0.1N NaOH (0.25 ml/well), an aliquot neutralized with 1N HCl, and radioactivity was determined by scintillation counting. Protein was quantified in an aliquot of the solubilized cells using a BIO-RAD protein assay kit, according to the manufacturer's directions.
Lipophilic inhibitors were dissolved in DMSO.
Data Analysis: Competition curves were conducted in duplicate, using 10 concentrations of unlabeled drug.
COS cells grown in 75 cm^2 or 150 cm^2 flasks in DMEM with 10% bovine calf serum, 100 U/ml penicillin G, and 100 μg/ml streptomycin sulfate (37° C., 5% CO2) were transfected using DEAE-dextran. On the day following transfection the cells were split into 24-well assay plates coated with poly-D-lysine (10 μg/ml), and transport was measured 24 hours later.
After 10 minutes the medium was removed and unlabeled drugs in HBS were added (450 μl/well). […] Plates were incubated at 37° C. for 10 minutes, then washed rapidly 3× with ice-cold HBS, using a 24-position plate washer (Brandel, Gaithersburg, Mass.; model PW-12). Cells were solubilized with 0.05% sodium deoxycholate/0.1N NaOH (0.25 ml/well), an aliquot neutralized with 1N HCl, and radioactivity was determined by scintillation counting. Protein was quantified in an aliquot of the solubilized cells using a BIO-RAD protein assay kit, according to the manufacturer's directions.

GAT-2 = target: T2, GAT-2 (Rattus norvegicus, UniProt P31646); experiment: [3H]GABA uptake by COS cells transfected with GAT-2 (rB14b); type: cell-based
T2 construct: randomly primed GAT-2 full-length or GAT-3 truncated or full-length cDNA clones; expressed in transfected cells; host or cells: COS cells, transient, plasmid pEVJB-rB14b
T2 sequence (P31646 1-602): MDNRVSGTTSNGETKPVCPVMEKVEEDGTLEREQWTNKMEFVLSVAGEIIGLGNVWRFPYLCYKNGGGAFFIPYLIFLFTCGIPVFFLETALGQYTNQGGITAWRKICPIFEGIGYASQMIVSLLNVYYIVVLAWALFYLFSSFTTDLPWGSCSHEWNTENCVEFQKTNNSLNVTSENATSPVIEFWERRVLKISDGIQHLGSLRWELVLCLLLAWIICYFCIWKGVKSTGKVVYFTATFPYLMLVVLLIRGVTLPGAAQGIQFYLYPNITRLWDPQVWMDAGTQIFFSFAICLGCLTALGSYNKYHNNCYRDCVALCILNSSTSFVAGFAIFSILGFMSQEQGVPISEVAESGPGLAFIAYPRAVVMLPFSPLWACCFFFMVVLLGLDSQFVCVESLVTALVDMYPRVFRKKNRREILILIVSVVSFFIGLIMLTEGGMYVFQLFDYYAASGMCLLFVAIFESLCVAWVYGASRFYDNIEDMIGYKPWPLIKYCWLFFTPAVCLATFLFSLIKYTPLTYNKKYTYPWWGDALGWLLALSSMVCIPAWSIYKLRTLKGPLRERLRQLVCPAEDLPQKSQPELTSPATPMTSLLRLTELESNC

O-2A/Type 2 astrocytes = experiment: [3H]GABA uptake in O-2A/Type 2 astrocyte cultures; type: cell-based, rat
Protocol: as §1, §2

neuronal cultures = experiment: [3H]GABA uptake in primary neuronal cell cultures; type: cell-based, rat
Protocol: Brains were removed aseptically from E17 embryonic Sprague-Dawley rats brains, carefully dissected free of meninges, and kept on ice. A single-cell suspension was made by mincing the brains, followed by trituration through a serological pipette. […] On day three cytosine β-D-arabinofuransoside (3 μM) was added to control the proliferation of non-neuronal cells. The cultures were used for transport assay approximately one week after plating.

[1] = Rattus norvegicus, Astrocyte, 3 h
[2] = COS, read-out: % Inhibition of [3H]GABA uptake, GAT-2
[3] = Rattus norvegicus, Astrocyte, 3 h, read-out: IC50 for inhibition of [3H]GABA uptake, O-2A/Type 2 astrocytes with NNC-711, in the presence of 10 μM NNC-711
[4] = Rattus norvegicus, Astrocyte, 3 h, read-out: IC50 for inhibition of [3H]GABA uptake, O-2A/Type 2 astrocytes, absence of NNC-711
[5] = Rattus norvegicus, Neuron, read-out: IC50 for inhibition of [3H]GABA uptake, Neurons with NNC-711, in the presence of 10 μM NNC-711
[6] = Rattus norvegicus, Neuron, read-out: IC50 for inhibition of [3H]GABA uptake, Neurons, absence of NNC-711
[7] = read-out: IC50 for inhibition of [3H]GABA uptake, Neurons, absence of NNC-711
[8] = read-out: IC50 for inhibition of [3H]GABA uptake, hBGT-1 (Table 8), full competition curves, 50 nM [3H]GABA
[9] = read-out: IC50 for inhibition of [3H]GABA uptake, O-2A/Type 2 astrocytes with NNC-711, in the presence of 10 μM NNC-711
[10] = read-out: IC50 for inhibition of [3H]GABA uptake, O-2A/Type 2 astrocytes, absence of NNC-711
[11] = read-out: IC50 for inhibition of [3H]GABA uptake, Neurons with NNC-711, in the presence of 10 μM NNC-711

Row | Compound | IC50 (Type 1 astrocytes; [1]) | IC50 (hBGT-1) | IC50 (rat GAT-1) | inhibition at 100 µM (GAT-2; [2]) | IC50 (O-2A/Type 2 astrocytes; [3]) | IC50 (O-2A/Type 2 astrocytes; [4]) | IC50 (neuronal cultures; [5]) | IC50 (neuronal cultures; [6]) | IC50 (neuronal cultures; [7]) | IC50 (Type 1 astrocytes) | IC50 (hBGT-1; [8]) | IC50 (O-2A/Type 2 astrocytes; [9]) | IC50 (O-2A/Type 2 astrocytes; [10]) | IC50 (neuronal cultures; [11]) | also measured
1 | N[C@@H]1CCC[C@H](C(=O)O)C1 (relative stereo) [ACHC, cis-3-aminocyclohexanecarboxylic acid] | 400 ± 200 µM | 1070 µM | 132 ± 44 µM | 3 ± 3% | 2360 µM | ~35 µM | 1950 µM | ~75 µM | 77 ± 8 µM | – | – | – | – | – | IC50 (O-2A/Type 2 astrocytes; Rattus norvegicus, Astrocyte, read-out: IC50 for GABA transport, O-2A/Type 2 astrocytes, in the presence of 10 μM NNC-711): ~2000 µM; IC50 (neuronal cultures; Rattus norvegicus, read-out: IC50, NNC-711-resistant GABA transport, neuronal cultures, in the presence of 10 μM NNC-711): ~2000 µM
2 | NCCCC(=O)O [GABA, gamma-aminobutyric acid] | – | – | – | – | – | – | – | – | – | – | – | – | – | – | VMAX of GABA transport, COS/rB14b (GAT-2) (GAT-2; various concentrations of [3H]GABA, 30 seconds): 2.5±1.2 nmoles/mg protein
3 | N=C(N)NCCS(=O)(=O)O [GES, guanidinoethanesulfonic acid] | – | – | – | – | – | – | – | – | 2110 µM | 310 ± 60 µM | 4800 µM | 603 ± 300 µM | 1560 µM | 508 ± 60 µM | –
4 | NCC[C@H](N)C(=O)O [L-DABA, L-(2,4)diaminobutyric acid] | 3460 µM | 528 ± 62 µM | 128 ± 12 µM | 43 ± 8% | 91 ± 30 µM | 74 µM | 861 ± 225 µM | 165 ± 20 µM | – | – | – | – | – | – | –
5 | O=C(O)C1=CCCN(CCON=C(c2ccccc2)c2ccccc2)C1 [NNC-711] | – | – | – | – | – | – | – | – | 0.28 ± 0.1 µM | 2 ± 0.3 µM | 3570 µM | – | 0.07 µM | – | specific [3H]GABA uptake that persisted, O-2A/Type 2 astrocytes (O-2A/Type 2 astrocytes; NNC-711 at 10 μM): 26±4%; specific [3H]GABA uptake that persisted, neuronal cultures (neuronal cultures; NNC-711 at 10 μM): 31±1%; IC50 (neuronal cultures; read-out: IC50 for [3H]GABA uptake, neuronal cultures): ~0.3 µM
6 | O=C(O)C1=CCCNC1 [guvacine] | 23 ± 10 µM | 1420 µM | 39 ± 6 µM | – | – | – | – | – | – | – | – | – | – | – | inhibition at 10 µM (GAT-2; [2]): 13 ± 1%; IC50 (O-2A/Type 2 astrocytes; Rattus norvegicus, Astrocyte, 3 h, read-out: IC50 for inhibition of [3H]GABA uptake, O-2A/Type 2 astrocytes): 8 ± 0.9 µM; IC50 (neuronal cultures; Rattus norvegicus, Neuron, read-out: IC50 for inhibition of [3H]GABA uptake, Neurons): 14 ± 2 µM
7 | NCCS(=O)O [hypotaurine] | 69 ± 30 µM | 536 ± 41 µM | 1010 µM | – | 29 ± 15 µM | 620 µM | 25 ± 2 µM | 742 ± 200 µM | – | – | – | – | – | – | –
8 | NCCS(=O)(=O)O [taurine, 2-aminoethanesulfonic acid] | – | 13200 µM | 32300 µM | – | – | 13000 µM | – | – | – | – | – | – | – | – | –
9 | NCCC(=O)O [β-alanine] | 100 ± 30 µM | 1100 µM | 2920 ± 197 µM | 86 ± 1% | ~25 µM | 2030 µM | ~50 µM | 4060 µM | – | – | – | 24 ± 8 µM | – | 48 ± 10 µM | IC50 (O-2A/Type 2 astrocytes; Rattus norvegicus, Astrocyte, read-out: IC50 for GABA transport, O-2A/Type 2 astrocytes): ~2000 µM; IC50 (neuronal cultures; Rattus norvegicus, read-out: IC50 for [3H]GABA uptake, neuronal cultures, absence of NNC-711): ~4000 µM
10 | hydroxynipecotic acid [OH-nipecotic] | – | – | – | – | – | – | – | – | 22 ± 2 µM | 1610 µM | 3840 µM | 197 ± 20 µM | 17 ± 3 µM | 304 ± 100 µM | % Inhibition of [3H]GABA uptake, GAT-2 (GAT-2; inhibitor 10 μM, 50 nM [3H]GABA, 10 minutes, 37° C.): 9 ± 7 (3) %
